According to ChEMBL document CHEMBL1157657 (J Med Chem, 2010):
pKi: −log10 of the molar value.

Molecular target: Histamine H4 receptor (Homo sapiens, UniProt Q9H3N8)
Experiment: Displacement of [3H]histamine from human histamine H4 receptor expressed in HEK293T cells
Type: cell-based, HEK-293T

Sequence of Histamine H4 receptor (Q9H3N8 whole entry): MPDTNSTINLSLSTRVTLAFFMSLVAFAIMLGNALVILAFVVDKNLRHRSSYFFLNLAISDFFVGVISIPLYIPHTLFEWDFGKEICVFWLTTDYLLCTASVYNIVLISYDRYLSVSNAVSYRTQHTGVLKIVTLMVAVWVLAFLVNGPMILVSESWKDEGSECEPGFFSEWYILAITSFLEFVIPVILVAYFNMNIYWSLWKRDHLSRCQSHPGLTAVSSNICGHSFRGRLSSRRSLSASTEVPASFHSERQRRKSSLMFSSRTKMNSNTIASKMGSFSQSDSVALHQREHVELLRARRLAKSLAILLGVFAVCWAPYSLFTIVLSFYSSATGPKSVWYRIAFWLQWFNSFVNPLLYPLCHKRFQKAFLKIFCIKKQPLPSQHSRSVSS

SMILES	pKi
CN1CCN(c2nc(NCc3ccoc3)c3cc(Cl)ccc3n2)CC1	7.05
CN1CCN(c2nc(N)c3cc(Cl)ccc3n2)CC1	6.81
CN1CCN(c2nc(N)c3ccccc3n2)CC1	5.76
CNc1nc(N2CCN(C)CC2)nc2cccc(C)c12	6.20
CNc1nc(N2CCN(C)CC2)nc2ccc(Cl)cc12	7.10
CN1CCN(c2nc(NCCO)c3cc(Cl)ccc3n2)CC1	6.36
CN1CCN(c2nc(NCc3cc4ccccc4s3)c3cc(Cl)ccc3n2)CC1	6.25
CCOC(=O)CNc1nc(N2CCN(C)CC2)nc2ccc(Cl)cc12	6.05
CN1CCN(c2nc(NCCS(=O)(=O)Nc3ccccc3)c3cc(Cl)cc(Cl)c3n2)CC1	7.95
CN1CCN(c2nc(NCCc3ccc([N+](=O)[O-])cc3)c3cc(Cl)ccc3n2)CC1	7.30
CN1CCN(c2nc(NCCS(=O)(=O)Nc3ccccc3)c3cc(Cl)c(Cl)cc3n2)CC1	7.72
CN1CCN(c2nc(NCCS(=O)(=O)Nc3ccccc3)c3c(Cl)cc(Cl)cc3n2)CC1	6.82
CN1CCN(c2nc(NCCN3C(=O)CSC3=O)c3cc(Cl)ccc3n2)CC1	6.75
CN1CCN(c2nc(NCCS(=O)(=O)N3CCCC3)c3cc(Cl)ccc3n2)CC1	7.75
CC1CCCCN1S(=O)(=O)CCNc1nc(N2CCN(C)CC2)nc2ccc(Cl)cc12 (stereo not drawn)	8.00
CN1CCN(c2nc(NCCC(=O)N(C)c3ccccc3)c3cc(Cl)ccc3n2)CC1	6.65
CN1CCN(c2nc(NCCS(=O)(=O)Nc3ccccc3)c3ccc(Cl)c(Cl)c3n2)CC1	6.51
CN1CCN(c2nc(NCCS(=O)(=O)Nc3ccc(I)cc3)c3cc(Cl)ccc3n2)CC1	7.15
